One series deals with T1, IKK epsilon/TBK1 (Homo sapiens, UniProt Q14164+Q9UHD2).
T1 sequence (Q14164 whole entry): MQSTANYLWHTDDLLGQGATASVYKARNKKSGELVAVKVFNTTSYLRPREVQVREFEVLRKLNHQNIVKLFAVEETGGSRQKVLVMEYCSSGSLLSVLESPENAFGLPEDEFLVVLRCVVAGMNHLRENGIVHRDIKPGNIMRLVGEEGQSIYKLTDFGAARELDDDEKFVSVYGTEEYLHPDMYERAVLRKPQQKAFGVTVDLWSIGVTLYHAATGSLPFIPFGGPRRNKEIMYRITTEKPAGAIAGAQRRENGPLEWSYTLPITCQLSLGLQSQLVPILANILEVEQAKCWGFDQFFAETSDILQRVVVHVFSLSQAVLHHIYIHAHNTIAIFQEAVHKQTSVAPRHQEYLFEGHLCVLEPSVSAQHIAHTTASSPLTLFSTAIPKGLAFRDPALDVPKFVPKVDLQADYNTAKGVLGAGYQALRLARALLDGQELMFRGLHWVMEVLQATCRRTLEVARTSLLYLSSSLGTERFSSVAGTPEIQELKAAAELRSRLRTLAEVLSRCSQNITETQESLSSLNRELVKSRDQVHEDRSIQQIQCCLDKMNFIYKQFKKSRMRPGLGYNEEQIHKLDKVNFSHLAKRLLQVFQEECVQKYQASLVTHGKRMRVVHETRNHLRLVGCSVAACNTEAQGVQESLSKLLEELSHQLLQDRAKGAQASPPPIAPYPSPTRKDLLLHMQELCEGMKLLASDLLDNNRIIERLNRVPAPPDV
T1 sequence (Q9UHD2 whole entry): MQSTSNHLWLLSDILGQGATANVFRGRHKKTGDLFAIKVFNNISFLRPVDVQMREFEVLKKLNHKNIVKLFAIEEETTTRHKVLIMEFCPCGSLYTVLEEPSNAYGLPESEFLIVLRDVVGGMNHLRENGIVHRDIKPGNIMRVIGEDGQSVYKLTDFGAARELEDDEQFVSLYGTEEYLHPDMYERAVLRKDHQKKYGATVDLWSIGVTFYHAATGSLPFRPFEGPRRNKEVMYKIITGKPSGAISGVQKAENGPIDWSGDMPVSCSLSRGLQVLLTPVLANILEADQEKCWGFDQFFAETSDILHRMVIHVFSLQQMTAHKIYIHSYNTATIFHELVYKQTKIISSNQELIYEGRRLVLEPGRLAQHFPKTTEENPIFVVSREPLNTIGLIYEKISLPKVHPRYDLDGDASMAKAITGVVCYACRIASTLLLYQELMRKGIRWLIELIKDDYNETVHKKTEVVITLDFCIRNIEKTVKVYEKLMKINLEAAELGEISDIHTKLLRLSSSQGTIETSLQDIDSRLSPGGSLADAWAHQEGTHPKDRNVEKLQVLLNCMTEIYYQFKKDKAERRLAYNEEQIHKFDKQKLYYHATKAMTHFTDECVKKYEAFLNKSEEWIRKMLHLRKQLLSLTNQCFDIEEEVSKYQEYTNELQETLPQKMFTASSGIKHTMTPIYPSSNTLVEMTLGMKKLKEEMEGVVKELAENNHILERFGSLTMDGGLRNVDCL
Description: Inhibition of IKKepsilon/TBK1 in human MDB-MB-231 cells transduced with lentiviral vector expressing human IRF3 assessed as decrease in poly(I:C)-stimulated IRF3 phosphorylation at S385/386 residues preincubated for 1 hr followed by poly(I:C) addition and measured after 1 hr. The series is classed as cell-based.

In the next series the target is CDK9/cyclin T1 (Homo sapiens, UniProt P50750). Description: Inhibition of recombinant full length human His-tagged CDK9/CyclinT1 expressed in baculovirus expression system using biotin-labelled Ttds-YISPLKSPYKISEG peptide as substrate preincubated with enzyme for 15 mins followed by substrate addition and further incubated for 25 mins presence of 10 uM of ATP by TR-FRET assay. In general terms: In TR-FRET formats the signal depends on donor and acceptor labels being close together.
Sequence of CDK9/cyclin T1 (O60563 whole entry): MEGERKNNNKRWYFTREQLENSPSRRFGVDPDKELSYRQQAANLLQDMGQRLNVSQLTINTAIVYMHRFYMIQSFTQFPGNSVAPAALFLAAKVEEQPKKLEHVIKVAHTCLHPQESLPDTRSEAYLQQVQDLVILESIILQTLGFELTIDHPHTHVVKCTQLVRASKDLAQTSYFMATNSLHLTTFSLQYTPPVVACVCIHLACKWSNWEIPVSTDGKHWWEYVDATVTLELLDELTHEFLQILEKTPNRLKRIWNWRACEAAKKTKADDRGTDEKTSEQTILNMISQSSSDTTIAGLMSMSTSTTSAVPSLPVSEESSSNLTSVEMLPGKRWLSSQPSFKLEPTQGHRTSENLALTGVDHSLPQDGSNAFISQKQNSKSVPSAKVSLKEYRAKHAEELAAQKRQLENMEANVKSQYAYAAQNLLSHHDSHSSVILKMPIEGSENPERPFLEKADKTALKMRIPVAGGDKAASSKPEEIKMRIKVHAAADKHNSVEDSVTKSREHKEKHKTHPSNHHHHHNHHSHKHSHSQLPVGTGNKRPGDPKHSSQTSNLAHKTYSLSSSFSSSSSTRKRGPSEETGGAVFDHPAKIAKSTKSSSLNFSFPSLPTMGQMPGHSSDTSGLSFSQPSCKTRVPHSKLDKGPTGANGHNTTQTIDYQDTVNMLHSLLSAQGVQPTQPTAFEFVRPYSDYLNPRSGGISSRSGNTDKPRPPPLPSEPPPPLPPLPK
Sequence of CDK9/cyclin T1 (P50750 whole entry): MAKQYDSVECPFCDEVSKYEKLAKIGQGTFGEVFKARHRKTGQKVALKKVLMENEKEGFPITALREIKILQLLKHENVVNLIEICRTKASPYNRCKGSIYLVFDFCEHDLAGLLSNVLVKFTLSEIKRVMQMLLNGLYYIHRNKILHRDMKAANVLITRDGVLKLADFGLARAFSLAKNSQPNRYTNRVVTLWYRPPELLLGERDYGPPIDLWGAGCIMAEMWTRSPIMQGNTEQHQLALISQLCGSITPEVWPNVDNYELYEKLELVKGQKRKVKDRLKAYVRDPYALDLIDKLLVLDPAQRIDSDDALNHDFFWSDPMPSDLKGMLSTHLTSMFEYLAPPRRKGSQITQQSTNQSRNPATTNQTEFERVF

Series [1] is described as follows: Efflux ratio of apparent permeability across basolateral to apical membrane over apical to basolateral membrane in human Caco2 cells. The series is classed as ADME, cell-based. The note with it: Caco-2. Background: Passage across Caco-2 layers is used to estimate intestinal permeability.
Series [2] has as its target T2, Serine/threonine-protein kinase ULK1 (Homo sapiens, UniProt O75385).
T2 sequence (O75385 whole entry): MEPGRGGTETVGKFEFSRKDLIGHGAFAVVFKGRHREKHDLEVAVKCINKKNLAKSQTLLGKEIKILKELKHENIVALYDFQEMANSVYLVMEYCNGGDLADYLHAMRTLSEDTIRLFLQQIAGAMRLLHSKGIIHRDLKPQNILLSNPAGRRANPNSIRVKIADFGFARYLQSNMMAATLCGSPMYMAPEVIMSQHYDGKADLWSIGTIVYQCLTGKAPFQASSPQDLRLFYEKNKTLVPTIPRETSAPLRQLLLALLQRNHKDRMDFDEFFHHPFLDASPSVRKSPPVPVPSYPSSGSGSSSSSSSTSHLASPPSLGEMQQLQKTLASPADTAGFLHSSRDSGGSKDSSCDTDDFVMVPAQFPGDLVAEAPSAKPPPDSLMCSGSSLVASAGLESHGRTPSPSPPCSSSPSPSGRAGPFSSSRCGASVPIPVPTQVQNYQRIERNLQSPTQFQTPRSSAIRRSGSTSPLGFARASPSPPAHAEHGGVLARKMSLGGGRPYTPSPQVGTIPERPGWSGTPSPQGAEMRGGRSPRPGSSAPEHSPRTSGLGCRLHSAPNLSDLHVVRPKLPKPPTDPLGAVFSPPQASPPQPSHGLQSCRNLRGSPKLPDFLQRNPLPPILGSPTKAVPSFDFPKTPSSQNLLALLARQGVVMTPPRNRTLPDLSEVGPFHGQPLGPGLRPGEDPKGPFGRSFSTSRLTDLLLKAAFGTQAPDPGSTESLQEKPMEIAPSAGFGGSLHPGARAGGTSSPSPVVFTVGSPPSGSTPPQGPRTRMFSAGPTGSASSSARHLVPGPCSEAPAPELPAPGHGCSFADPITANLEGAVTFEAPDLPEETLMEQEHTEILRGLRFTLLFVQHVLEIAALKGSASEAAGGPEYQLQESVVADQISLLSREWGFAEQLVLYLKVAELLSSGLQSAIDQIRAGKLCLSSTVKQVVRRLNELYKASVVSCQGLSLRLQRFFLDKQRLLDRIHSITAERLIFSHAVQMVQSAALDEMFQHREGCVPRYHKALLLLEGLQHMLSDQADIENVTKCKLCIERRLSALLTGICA
In words: Inhibition of wild-type human partial length ULK1 (M1 to T309 residues) expressed in mammalian expression system.

Series [3] is described as follows: Clearance in Han Wistar rat hepatocytes at 1 uM measured upto 90 mins by LC-MS/MS analysis. The series is classed as ADME, cell-based, Hepatocyte.
The nature of series [4]: Hepatic extraction ratio in Han Wistar rat hepatocytes at 1 uM measured upto 90 mins by LC-MS/MS analysis.
Series [5] can be described thus: Hepatic extraction in Wistar rat at 0.30 mg/kg, iv via bolus or 0.30 mg/kg, po measured upto 24 hrs by LC-MS/MS analysis. The note with it: in vivo, 0.3 mg/kg.

On to `C[C@H](c1ccnc(Nc2nc3ccc(-c4cnn(CC5CC5)c4)cc3[nH]2)c1)N1CCN(C(=O)CC(F)(F)F)CC1`, for which the IC50 was 131 nM at IKK epsilon/TBK1, more than 20000 nM on CDK9/cyclin T1 and 9 nM in series [2]. Besides, in series [1], the efflux ratio came out at 7.5.

Take `C[C@H](c1ccnc(Nc2nc3ccc(-c4cnn(CC5CCC5)c4)cc3[nH]2)c1)N1CCN(C(=O)CC(F)(F)F)CC1`: the IC50 was 93 nM at IKK epsilon/TBK1 and more than 20000 nM on CDK9/cyclin T1.

Turning to `CN(C)c1cc(-c2ccc3nc(Nc4cc(CN5CCN(C(=O)CC(F)(F)F)CC5)ccn4)[nH]c3c2)ncn1`, the IC50 on IKK epsilon/TBK1 was 213 nM; on CDK9/cyclin T1, 14400 nM; in series [2] it was more than 10000 nM.

On to `C[C@H](c1ccnc(Nc2nc3ccc(-c4cc(OCC5CC5)ncn4)cc3[nH]2)c1)N1CCN(C(=O)CC(F)(F)F)CC1`, for which the IC50 was 66 nM at IKK epsilon/TBK1, 16100 nM at CDK9/cyclin T1 and 416 nM in series [2].

`O=C(CC(F)(F)F)N1CCN(Cc2ccnc(Nc3nc4ccc(-c5cnn(CC6CC6)c5)cc4[nH]3)c2)CC1`: the IC50 was 368 nM on IKK epsilon/TBK1, 9190 nM on CDK9/cyclin T1 and 28 nM in series [2]. For the same molecule, in series [1], the efflux ratio is 3.9.

In the case of `Cc1cc(-c2ccc3nc(Nc4cc([C@@H](C)N5CCN(C(=O)CC(F)(F)F)CC5)ccn4)[nH]c3c2)ncn1`, the IC50 was found to be 140 nM at IKK epsilon/TBK1, 2130 nM at CDK9/cyclin T1 and 980 nM in series [2].

`CC(C)Oc1cncnc1-c1ccc2nc(Nc3cc([C@@H](C)N4CCN(C(=O)CC(F)(F)F)CC4)ccn3)[nH]c2c1`: the IC50 at IKK epsilon/TBK1 came to 119 nM; on CDK9/cyclin T1, 824 nM; in series [2] it was 263 nM.

`Cc1noc(-c2ccc3nc(Nc4cc(CN5CCN(C(=O)CC(F)(F)F)CC5)ccn4)[nH]c3c2)n1`: the IC50 on IKK epsilon/TBK1 is 2750 nM; on CDK9/cyclin T1, 455 nM. Besides, the efflux ratio in series [1] was 3.4.

Turning to `Cc1noc(-c2ccc3nc(Nc4cc([C@@H](C)N5CCN(C(=O)CC(F)(F)F)CC5)ccn4)[nH]c3c2)n1`, the IC50 on IKK epsilon/TBK1 was 1210 nM; at CDK9/cyclin T1, 1520 nM. Moreover, the efflux ratio in series [1] amounted to 0.8.

As to `COCc1cc(-c2ccc3nc(Nc4cc([C@@H](C)N5CCN(C(=O)CC(F)(F)F)CC5)ccn4)[nH]c3c2)ncn1`, the figures for the IC50 (on CDK9/cyclin T1; in series [2]) were 5110 nM and 368 nM, respectively.

In the case of `CNc1cc(-c2ccc3nc(Nc4cc(CN5CCN(C(=O)CC(F)(F)F)CC5)ccn4)[nH]c3c2)ncn1`, the half-maximal inhibitory concentration (IC50) turned out to be 1990 nM at IKK epsilon/TBK1 and 1640 nM in series [2].

Take `C[C@H](c1ccnc(Nc2nc3ccc(-c4cc(N(C)C)ncn4)cc3[nH]2)c1)N1CCN(C(=O)CC(F)(F)F)CC1` [BAY-985]: the values for the IC50 (at IKK epsilon/TBK1; in series [2]) were 74 nM and 7930 nM, respectively. In addition, the efflux ratio in series [1] was determined as 17. The molecule further returned a CLH in series [3] of 28.3 mL/min/kg. Besides, the hepatic extraction ratio at […], 1 µM in series [4] was 0.4. Further, the hepatic extraction ratio at 24 h in series [5] is 0.95.

As a reminder, the IC50 is the concentration that gives 50% inhibition. Broadly, the efflux ratio is a quotient of directional permeabilities that is used to spot active efflux.

The record behind these values is ChEMBL document CHEMBL4376867 (J Med Chem, 2020).
